Test results as given in the NIST ThermoML archive (doi:10.1021/je700751a).

Assay: mn = molality of the nth substance listed, in mol/kg
Conditions: 101 kPa, Liquid; for viscosity: Capillary tube (Ostwald / Ubbelohde) method

O=C([O-])[C@H](O)[C@@H](O)C(=O)[O-].[K+].[K+] [dipotassium L-tartrate] + O
Conditions	mass density, 298.15 K [kg/m3]	mass density, 308.15 K [kg/m3]	mass density, 318.15 K [kg/m3]	speed of sound, 298.15 K [m/s]	viscosity, 298.15 K [mPa·s]	viscosity, 308.15 K [mPa·s]	viscosity, 318.15 K [mPa·s]
m1 = 0.0222	–	–	–	–	0.879	0.718	0.595
m1 = 0.0312	–	–	–	–	0.892	0.723	0.601
m1 = 0.0398	1002.88	999.78	995.909	1502.5	–	–	–
m1 = 0.0498	1004.29	1001.18	997.282	1503.7	–	–	–
m1 = 0.0516	–	–	–	–	0.902	0.731	0.609
m1 = 0.0615	1005.99	1002.85	998.942	1505.4	–	–	–
m1 = 0.0697	1007.18	1004.01	1000.09	1506.5	–	–	–
m1 = 0.073	–	–	–	–	0.911	0.737	0.612
m1 = 0.0797	1008.56	1005.39	1001.44	1508.8	–	–	–
m1 = 0.0897	1010.01	1006.8	1002.86	1509.5	–	–	–
m1 = 0.0909	–	–	–	–	0.917	0.75	0.623
m1 = 0.0996	1011.42	1008.21	1004.24	1510.3	–	–	–
m1 = 0.1822	–	–	–	–	0.948	0.773	0.639
m1 = 0.2842	–	–	–	–	0.985	0.799	0.665
m1 = 0.3	1039.02	1035.42	1031.19	1535.7	–	–	–
m1 = 0.3843	–	–	–	–	1.012	0.821	0.693
m1 = 0.4639	–	–	–	–	1.04	0.847	0.705
m1 = 0.4985	1064.81	1060.93	1056.45	1559.5	–	–	–
m1 = 0.6883	–	–	–	–	1.125	0.916	0.764
m1 = 0.6922	1088.8	1084.65	1079.98	1582.2	–	–	–
m1 = 0.8934	1112.36	1108	1103.17	1605.2	–	–	–
m1 = 1.098	–	–	–	–	1.294	1.054	0.879
m1 = 1.284	1155.12	1150.41	1145.3	1648.3	–	–	–
m1 = 1.468	–	–	–	–	1.474	1.206	1.006
m1 = 1.579	1185.12	1180.16	1174.96	1680.5	–	–	–
m1 = 1.878	–	–	–	–	1.71	1.389	1.157
m1 = 1.965	1221.2	1216.05	1210.59	1718.3	–	–	–
m1 = 2.443	1262.59	1257.21	1251.59	1764	–	–	–
m1 = 2.602	–	–	–	–	2.243	1.801	1.483
m1 = 2.923	1299.6	1294.09	1288.34	1805.2	–	–	–
m1 = 3.391	1331.8	1326.15	1320.32	1841.5	–	–	–
m1 = 3.405	–	–	–	–	3.301	2.613	2.12
m1 = 3.858	1362.45	1356.74	1350.83	1876.2	–	–	–
m1 = 4.077	–	–	–	–	4.296	3.367	2.7
m1 = 4.324	1389.87	1384.06	1378.1	1907	–	–	–
m1 = 4.785	1414.66	1408.83	1402.83	1935.4	–	–	–
m1 = 5.188	–	–	–	–	6.378	4.841	3.829
m1 = 5.238	1437.73	1431.81	1425.78	1960.6	–	–	–
m1 = 5.378	–	–	–	–	7.066	5.339	4.176
m1 = 5.692	1459.07	1453.12	1447.06	1984.8	–	–	–
